Experimental data as given in PubChem BioAssay (NCI).
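Assay format: 96-well plates, 48-hour exposure. Abbreviation: GI50, concentration required for 50% inhibition of growth. TGI marks complete inhibition of growth.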

What was measured:
Test in all cases: NCI anticancer screen, dose series, 48 h
SK-MEL-28 melanoma = test system: SK-MEL-28 melanoma
A549 NSCLC = test system: A549 NSCLC
SK-MEL-5 melanoma = test system: SK-MEL-5 melanoma
BT-549 breast = test system: BT-549 breast
ACHN renal = test system: ACHN renal
RXF 393 renal = test system: RXF 393 renal
HOP-92 NSCLC = test system: HOP-92 NSCLC
MOLT-4 leukemia = test system: MOLT-4 leukemia
786-0 renal = test system: 786-0 renal
MALME-3M melanoma = test system: MALME-3M melanoma
MCF7 breast = test system: MCF7 breast
LOX IMVI melanoma = test system: LOX IMVI melanoma
SNB-75 CNS = test system: SNB-75 CNS
IGROV1 ovarian = test system: IGROV1 ovarian
RPMI-8226 leukemia = test system: RPMI-8226 leukemia
SNB-19 CNS = test system: SNB-19 CNS
CCRF-CEM leukemia = test system: CCRF-CEM leukemia
HCC-2998 colon = test system: HCC-2998 colon
OVCAR-8 ovarian = test system: OVCAR-8 ovarian
SN12C renal = test system: SN12C renal
UACC-257 melanoma = test system: UACC-257 melanoma
HCT-15 colon = test system: HCT-15 colon
T-47D breast = test system: T-47D breast
OVCAR-3 ovarian = test system: OVCAR-3 ovarian
SW-620 colon = test system: SW-620 colon
SF-268 CNS = test system: SF-268 CNS
NCI-H460 lung = test system: NCI-H460 lung
HOP-62 NSCLC = test system: HOP-62 NSCLC
NCI/ADR-RES ovarian = test system: NCI/ADR-RES ovarian
TK-10 renal = test system: TK-10 renal
NCI-H226 lung = test system: NCI-H226 lung
OVCAR-5 ovarian = test system: OVCAR-5 ovarian
SR leukemia = test system: SR leukemia
HS 578T breast = test system: HS 578T breast
NCI-H522 lung = test system: NCI-H522 lung
NCI-H23 lung = test system: NCI-H23 lung
OVCAR-4 ovarian = test system: OVCAR-4 ovarian
SK-MEL-2 melanoma = test system: SK-MEL-2 melanoma
U251 CNS = test system: U251 CNS
COLO 205 colon = test system: COLO 205 colon
K-562 leukemia = test system: K-562 leukemia
SF-295 CNS = test system: SF-295 CNS
CAKI-1 renal = test system: CAKI-1 renal
HCT-116 colon = test system: HCT-116 colon
SF-539 CNS = test system: SF-539 CNS
MDA-MB-231 breast = test system: MDA-MB-231 breast
UACC-62 melanoma = test system: UACC-62 melanoma
DU-145 prostate = test system: DU-145 prostate
HL-60(TB) leukemia = test system: HL-60(TB) leukemia
MDA-MB-435 = test system: MDA-MB-435
M14 melanoma = test system: M14 melanoma
A498 renal = test system: A498 renal
KM12 colon = test system: KM12 colon
PC-3 prostate = test system: PC-3 prostate
HT29 colon = test system: HT29 colon
UO-31 renal = test system: UO-31 renal
SK-OV-3 ovarian = test system: SK-OV-3 ovarian

## CC1(C)N=C(N)N=C(N)N1c1ccc(OCCCCOc2ccc(S(=O)(=O)F)cc2)c(Cl)c1
SK-MEL-28 melanoma
  GI50: 0.559 µM
  TGI: 28.8 µM
A549 NSCLC
  GI50: 0.0826 µM
  TGI: 14.8 µM
SK-MEL-5 melanoma
  GI50: 0.346 µM
  TGI: 8.5 µM
BT-549 breast
  GI50: 1.32 µM
  TGI: 17.3 µM
ACHN renal
  GI50: 1.68 µM
  TGI: > 100 µM
RXF 393 renal
  GI50: 0.363 µM
  TGI: 23.2 µM
HOP-92 NSCLC
  GI50: 0.671 µM
  TGI: 10.9 µM
MOLT-4 leukemia
  GI50: 0.135 µM
  TGI: 16.3 µM
786-0 renal
  GI50: 0.355 µM
  TGI: 18.9 µM
MALME-3M melanoma
  GI50: 2.38 µM
  TGI: 37.7 µM
MCF7 breast
  GI50: 0.13 µM
  TGI: 13 µM
LOX IMVI melanoma
  GI50: 0.0761 µM
  TGI: 14.3 µM
SNB-75 CNS
  GI50: 0.737 µM
  TGI: 17.1 µM
IGROV1 ovarian
  GI50: 0.0602 µM
  TGI: 21.8 µM
RPMI-8226 leukemia
  GI50: 0.116 µM
  TGI: 12 µM
SNB-19 CNS
  GI50: 0.259 µM
  TGI: 17.8 µM
CCRF-CEM leukemia
  GI50: 0.0794 µM
  TGI: 17.6 µM
HCC-2998 colon
  GI50: 0.485 µM
  TGI: 18.2 µM
OVCAR-8 ovarian
  GI50: 0.348 µM
  TGI: 17.4 µM
SN12C renal
  GI50: 0.0575 µM
  TGI: 15.2 µM
UACC-257 melanoma
  GI50: 0.581 µM
  TGI: 14.1 µM
HCT-15 colon
  GI50: 1.12 µM
  TGI: > 100 µM
T-47D breast
  GI50: 1.14 µM
  TGI: 13.2 µM
OVCAR-3 ovarian
  GI50: 0.655 µM
  TGI: 16.6 µM
SW-620 colon
  GI50: 0.0379 µM
  TGI: 14 µM
SF-268 CNS
  GI50: 0.076 µM
  TGI: 16.4 µM
NCI-H460 lung
  GI50: 0.0382 µM
  TGI: 11.8 µM
HOP-62 NSCLC
  GI50: 0.269 µM
  TGI: 12.9 µM
NCI/ADR-RES ovarian
  GI50: 71.6 µM
  TGI: > 100 µM
TK-10 renal
  GI50: 1.13 µM
  TGI: 20.7 µM
NCI-H226 lung
  GI50: 0.58 µM
  TGI: 28.1 µM
OVCAR-5 ovarian
  GI50: 0.302 µM
  TGI: 22.7 µM
SR leukemia
  GI50: 0.0445 µM
  TGI: 26.9 µM
HS 578T breast
  GI50: 4.85 µM
  TGI: 34.3 µM
NCI-H522 lung
  GI50: 0.16 µM
  TGI: 16.2 µM
NCI-H23 lung
  GI50: 0.115 µM
  TGI: 19.5 µM
OVCAR-4 ovarian
  GI50: 6.4 µM
  TGI: 27.7 µM
SK-MEL-2 melanoma
  GI50: 2.89 µM
  TGI: 22.1 µM
U251 CNS
  GI50: 0.0506 µM
  TGI: 13.6 µM
COLO 205 colon
  GI50: 0.137 µM
  TGI: 15.5 µM
K-562 leukemia
  GI50: 0.0597 µM
  TGI: 15.8 µM
SF-295 CNS
  GI50: 0.286 µM
  TGI: 11.5 µM
CAKI-1 renal
  GI50: 3.7 µM
  TGI: > 47.2 µM
HCT-116 colon
  GI50: 0.0463 µM
  TGI: 16.7 µM
SF-539 CNS
  GI50: 0.398 µM
  TGI: 8.39 µM
MDA-MB-231 breast
  GI50: 1.9 µM
  TGI: 23.9 µM
UACC-62 melanoma
  GI50: 0.0534 µM
  TGI: 18 µM
DU-145 prostate
  GI50: 0.194 µM
  TGI: 16 µM
HL-60(TB) leukemia
  GI50: 0.0595 µM
  TGI: 13.7 µM
MDA-MB-435
  GI50: 0.0604 µM
  TGI: 16.3 µM
M14 melanoma
  GI50: 0.116 µM
  TGI: 15.3 µM
A498 renal
  GI50: 1.1 µM
  TGI: 19.9 µM
KM12 colon
  GI50: 0.279 µM
  TGI: 11.7 µM
PC-3 prostate
  GI50: 0.064 µM
  TGI: 11 µM
HT29 colon
  GI50: 0.0519 µM
  TGI: 13.4 µM
UO-31 renal
  GI50: 24.4 µM
  TGI: > 100 µM
SK-OV-3 ovarian
  GI50: 5.88 µM
  TGI: 24.9 µM
